One assay deals with T1, Rat Steroid C17,20-lyase (Rattus norvegicus, UniProt P11715).
T1 construct: Testes excised from 13-week old, male SD rats were homogenized, and testicular microsomes were prepared; from tissue; host or cells: testicular microsomes of 13-week old male SD rats
T1 sequence (P11715 1-507): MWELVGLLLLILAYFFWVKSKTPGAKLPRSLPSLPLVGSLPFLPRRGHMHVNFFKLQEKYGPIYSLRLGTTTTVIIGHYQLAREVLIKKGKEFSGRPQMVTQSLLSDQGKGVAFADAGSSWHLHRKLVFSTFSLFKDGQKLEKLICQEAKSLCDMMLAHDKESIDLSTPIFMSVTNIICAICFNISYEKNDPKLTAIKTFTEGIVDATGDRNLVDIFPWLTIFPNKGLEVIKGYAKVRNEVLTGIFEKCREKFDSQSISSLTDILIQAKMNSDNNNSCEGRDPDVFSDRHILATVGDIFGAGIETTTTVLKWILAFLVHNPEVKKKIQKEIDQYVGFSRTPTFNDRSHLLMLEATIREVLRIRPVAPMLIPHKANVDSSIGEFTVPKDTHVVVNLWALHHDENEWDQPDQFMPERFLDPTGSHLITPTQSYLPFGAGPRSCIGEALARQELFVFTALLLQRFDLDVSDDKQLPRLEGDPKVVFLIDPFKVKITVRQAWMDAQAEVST
The assay is described as follows: Inhibitory activity on a rat steroid C17,20-lyase in vitro. It counts as biochemical. As to conditions: rat testicular microsomes, 10 nM [1,2-3H]-17-α-hydroxyprogesterone, NADPH, 7 min at 37° C., products testosterone and androstenedione. The method, then: Assay of Inhibitory Activity on a Rat Steroid C17,20-lyase in Vitro
Inhibitory activity was determined according to the method described in The Prostate, vol. 26, 140-150(1995) with some modifications.
Testes excised from 13-week old, male SD rats were homogenized, and testicular microsomes were prepared by a series of centrifugation. The microsome protein (7 μg/10 μl) was added to 101 μl of 100 mM phosphate buffer (pH 7.4) in which 10 nM (final concentration) [1,2-3H]-17-α-hydroxyprogesterone, NADPH, and test compounds were dissolved. The reaction mixture was incubated for 7 min at 37° C., terminated by addition of 40 μl of ethyl acetate, and briefly centrifuged. The substrate and the products (testosterone and androstenedione) in the upper phase were separated by silica gel thin layer chromatography. Detection of the spots and measurement of the radioactivity were performed by a BAS 2000 Bioimage analyzer. The concentration of the test compounds necessary to reduce the concentration of the products by 50% (The concentration in the control group in which no test compound was added was taken as 100%) was calculated, and shown in Table 1.

Assay [1] relates to testosterone biosynthesis. The experiment in a line: Inhibitory activity on testosterone biosynthesis in rats. To be noted: male SD rats, oral, 50 mg/kg, serum testosterone 2 h later by radioimmunoassay, percentage of control group. Type of assay: in vivo, rat. The method, then: Assay of Inhibitory Activity on Testosterone Biosynthesis in Rats
Test compounds were orally administered to 9-week old, male SD (Sprague-Dawley rats at a dose of 50 mg/kg. Two-h later blood was taken and testosterone concentration in serum was measured by radioimmunoassay. The percentage of the testosterone concentration of the groups of rats, which received test compounds, to that of the control group was calculated, and regarded as the inhibitory activity.

pIC50: −log10 of the molar value. Where a name gives a salt, the structure may show the parent alone.

A word on the pIC50: it is the negative decadic logarithm of the IC50, by convention in mol/L. A higher pIC50 goes with a low IC50. At Rat Steroid C17,20-lyase, `CCC(O)(c1ccc2c3c(ccc2c1)OCC3)c1c[nH]cn1` (stereo not drawn) [Example 18, 1-(1,2-Dihydronaphtho[2,1-b]furan-7-yl)-1-(1H-imidazol-4-yl)-1-propanol] had a pIC50 of 7.74. Moreover, the “Inhibitory activity on testosterone bioxynthesis (T/C, %)” value (“Inhibitory activity … (T/C, %)” below) in assay [1] was determined as 7.4%.

On Rat Steroid C17,20-lyase, `COc1cc2ccc([C@](O)(c3c[nH]cn3)C(C)C)cc2cc1OC` [Example 22, (S)-(−)-1-(6,7-Dimethoxy-2-naphthyl)-1-(1H-imidazol-4-yl)-2-methyl-1-propanol.fumaric Acid Salt] showed a pIC50 of 8.48.

Compound `CNC(=O)c1ccc2cc(C(O)(c3c[nH]cn3)C(C)C)ccc2c1` (stereo not drawn) [Example 9, 6-(1-Hydroxy-1-(1H-imidazol-4-yl)-2-methyl-propyl)-N-methyl-2-naphthamide] had a pIC50 at Rat Steroid C17,20-lyase of 8.21. The “Inhibitory activity … (T/C, %)” value in assay [1] was 4.5%.

The compound `CC(C)C(O)(c1ccc2cc(-c3cn[nH]c3)ccc2c1)c1c[nH]cn1` (stereo not drawn) [Example 6, 1-(1H-Imidazol-4-yl)-2-methyl-1-(6-(1H-pyrazol-4-yl)-2-naphthyl)-1-propanol] gave a pIC50 against Rat Steroid C17,20-lyase of 7.82. In addition, in assay [1], the “Inhibitory activity … (T/C, %)” value is listed as 10%.

On to `CC(C)C(O)(c1ccc2cc(-c3ccco3)ccc2c1)c1c[nH]cn1` (stereo not drawn) [Example 2, 1-(6-(2-Furyl)-2-naphthyl)-1-(1H-imidazol-4-yl)-2-methyl-1-propanol], for which the pIC50 at Rat Steroid C17,20-lyase was 7.55.

Turning to `CC(C)C(O)(c1ccc2cc(-c3cnco3)ccc2c1)c1c[nH]cn1` (stereo not drawn) [Example 7, 1-(1H-Imidazol-4-yl)-2-methyl-1-(6-(1,3-oxazol-5-yl)-2-naphthyl)-1-propanol], the pIC50 against Rat Steroid C17,20-lyase is 7.85.

Values taken from patent publication US6649643B1, “Imidazol-4-ylmehanols and their use as inhibitors of steroid C17-20 lyase” (Takeda Chemical Industries, Ltd., priority 1999, dated 2003).
